Reference: ChEMBL document CHEMBL1201862, “PubChem BioAssay data set” (2004)
Values joined by “and” are separate entries in the source; they are usually repeats but may differ in a detail not shown here. Equal entries are not always repeated.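 In this assay, cells in 96-well plates receive the compound at five concentrations for 48 hours. Endpoints are linearly interpolated between the surrounding concentrations. GI50 is the concentration that inhibits growth by half.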 Active and inactive are the calls of the source. Cut-off read from the data, not from the text of the source: active = GI50 up to about 1.1 µM and inactive = higher.

What was measured:
Experiment in all cases: DTP human tumour cell line panel, 48 h
IGROV-1 = test system: IGROV-1
NCI-H460 = test system: NCI-H460
OVCAR-5 = test system: OVCAR-5
HCT-15 = test system: HCT-15
MOLT-4 = test system: MOLT-4
HL-60 = test system: HL-60
SK-OV-3 = test system: SK-OV-3
HOP-92 = test system: HOP-92
SN12C = test system: SN12C
OVCAR-3 = test system: OVCAR-3
SK-MEL-28 = test system: SK-MEL-28
U-251 = test system: U-251
Malme-3M = test system: Malme-3M
OVCAR-4 = test system: OVCAR-4
MDA-N = test system: MDA-N
RXF 393 = test system: RXF 393
M14 = test system: M14

| SMILES | GI50 (IGROV-1) | GI50 (NCI-H460) | GI50 (OVCAR-5) | GI50 (HCT-15) [µM] | GI50 (MOLT-4) | GI50 (HL-60) | GI50 (SK-OV-3) | GI50 (HOP-92) | GI50 (SN12C) | GI50 (OVCAR-3) | GI50 (SK-MEL-28) | GI50 (U-251) | GI50 (Malme-3M) | GI50 (OVCAR-4) | GI50 (MDA-N) | GI50 (RXF 393) | GI50 (M14) |
| --- | --- | --- | --- | --- | --- | --- | --- | --- | --- | --- | --- | --- | --- | --- | --- | --- | --- |
| S=c1nc(Nc2ccc(Cl)cc2)c2c3c(sc2[nH]1)CCCC3 | > 100 µM (inactive) | > 100 µM (inactive) | > 100 µM (inactive) | > 100 | 64.7 µM (inactive) | 54 µM (inactive) | > 100 µM (inactive) | 76 µM (inactive) | > 100 µM (inactive) | > 100 µM (inactive) | > 100 µM (inactive) | > 100 µM (inactive) | > 100 µM (inactive) | > 100 µM (inactive) | > 100 µM (inactive) | > 100 µM (inactive) |  |
| Cc1ccc(C2=Nn3c(nc4sc5c(c4c3=O)CCCC5)SC2)cc1 | > 100 µM (inactive) | > 100 µM (inactive) | > 100 µM (inactive) | > 100 | > 100 µM (inactive) | > 100 µM (inactive) | > 100 µM (inactive) | > 100 µM (inactive) | > 100 µM (inactive) | > 100 µM (inactive) | > 100 µM (inactive) | > 100 µM (inactive) | > 100 µM (inactive) | > 100 µM (inactive) | > 100 µM (inactive) | > 100 µM (inactive) |  |
| CCCCCc1c(Cl)nc(Cl)nc1Cl | 7.05 µM (inactive) | 19.5 µM (inactive) | 12.7 µM (inactive) | 6.17 | 0.303 µM (active) | 2.42 µM (inactive) | 10.5 µM (inactive) | 5.46 µM (inactive) | 3.1 µM (inactive) | 14.4 µM (inactive) | 16.5 µM (inactive) | 9.27 µM (inactive) | 2.59 µM (inactive) | 16.1 µM (inactive) | 4.95 µM (inactive) | 8.41 µM (inactive) | 1.56 µM (inactive) |
| O=C1C2=Nc3ccccc3C(O)N2c2ccccc21 (configuration not stated) | 40.2 µM (inactive) | 20.2 µM (inactive) | 81.1 µM (inactive) | 16.6 | > 87.5 µM (inactive) | 2.37 µM (inactive) | 68.2 µM (inactive) | > 100 µM (inactive) | 27.2 µM (inactive) | 11.6 µM (inactive) | 23.4 µM (inactive) | > 52.5 µM (inactive) | 14.3 µM (inactive) | > 100 µM (inactive) | 1.84 µM (inactive) | > 10 µM (inactive) | > 78.2 µM (inactive) |
| O=S1(=O)c2cnccc2N=C(NCc2cccc3ccccc23)N1c1ccccc1 | > 61.5 µM (inactive) | 60.8 µM (inactive) | > 100 µM (inactive) | 50.1 | 12.2 µM (inactive) | 1.87 µM (inactive) | > 100 µM (inactive) | > 41.2 µM (inactive) | 27 µM (inactive) | > 100 µM (inactive) | > 100 µM (inactive) | 43.8 µM (inactive) | > 100 µM (inactive) | > 91.2 µM (inactive) | 13.2 µM (inactive) | > 43.9 µM (inactive) | > 83.9 µM (inactive) |
| CCOC(=O)C(C(=O)OCC)C(NC(=O)Nc1cc(C(F)(F)F)ccc1OC)(C(F)(F)F)C(F)(F)F | 25.4 µM (inactive) | 31.5 µM (inactive) | 45.8 µM (inactive) | 45.8 | 24 µM (inactive) | 21.8 µM (inactive) | 47.6 µM (inactive) | 25.5 µM (inactive) | 27.5 µM (inactive) | 26.1 µM (inactive) | 37.5 µM (inactive) | 29.2 µM (inactive) | 24.5 µM (inactive) | 23.2 µM (inactive) | 33.2 µM (inactive) | 30.3 µM (inactive) | 21.1 µM (inactive) |
| O=C1Oc2ccccc2C(=O)/C1=C/N1C(=O)N/C(=C\c2ccccc2O)C1=O | 48.8 µM (inactive) | 35.2 µM (inactive) | > 100 µM (inactive) | 39.8 | 41.2 µM (inactive) | 60.3 µM (inactive) | > 62.7 µM (inactive) | 11 µM (inactive) | 53.6 µM (inactive) | 32.7 µM (inactive) | > 84.9 µM (inactive) | 57.7 µM (inactive) | > 100 µM (inactive) | 55.3 µM (inactive) | 60.7 µM (inactive) | 37.5 µM (inactive) | 66.4 µM (inactive) |
| N#CC(C#N)[C@@H]1CCC=C(Sc2ccccc2)[C@H]1Sc1ccccc1 | 2.29 µM (inactive) | 3.56 µM (inactive) | 5.58 µM (inactive) | 2.4 | 2.38 µM (inactive) | 2.01 µM (inactive) | 4.54 µM (inactive) | 3.39 µM (inactive) | 2.8 µM (inactive) | 3.44 µM (inactive) | 2.72 µM (inactive) | 5.81 µM (inactive) | 2.42 µM (inactive) | 4.6 µM (inactive) | 1.32 µM (inactive) | 1.83 µM (inactive) | 1.96 µM (inactive) |
| COC(=O)[C@H](Cc1ccccc1)NC(=O)c1ccc(CNC(=O)/C=C/c2ccc(-c3ccccc3)cc2)cc1 | > 100 µM (inactive) | > 100 µM (inactive) | 59.4 µM (inactive) | > 100 | > 100 µM (inactive) | 25.9 µM (inactive) | 57.8 µM (inactive) | 80.9 µM (inactive) | > 100 µM (inactive) | > 100 µM (inactive) | > 100 µM (inactive) | 5.97 µM (inactive) | 24.9 µM (inactive) | > 100 µM (inactive) | > 100 µM (inactive) | 11.1 µM (inactive) | 94.6 µM (inactive) |
| CC(=O)O[C@@H]1C[C@]2(C(=O)c3ccccc3)C(=O)C(=O)S[C@]12c1ccccc1 | 45.4 µM (inactive) | 45.6 µM (inactive) | > 100 µM (inactive) | 32.9 | 28.4 µM (inactive) | 0.225 µM (active) | 50 µM (inactive) | 47.8 µM (inactive) | 35.8 µM (inactive) | 69.8 µM (inactive) | 58.3 µM (inactive) | 31.3 µM (inactive) | > 100 µM (inactive) | 56.1 µM (inactive) | 30 µM (inactive) | 25.9 µM (inactive) | 38.4 µM (inactive) |
| Cc1nc2sc3ccccc3n2c(=O)c1/N=N/c1ccc(Br)cc1 | > 100 µM (inactive) | > 100 µM (inactive) | > 100 µM (inactive) | > 100 | 55.8 µM (inactive) | 81.8 µM (inactive) | > 100 µM (inactive) | 76.4 µM (inactive) | > 100 µM (inactive) | > 100 µM (inactive) | > 100 µM (inactive) | > 100 µM (inactive) | > 100 µM (inactive) | 71.3 µM (inactive) | > 100 µM (inactive) | > 100 µM (inactive) | > 100 µM (inactive) |
| CC(=O)C(=[N+]=[N-])C(=O)OC(C)(C)C#N | > 10 µM (inactive) | > 10 µM (inactive) | > 10 µM (inactive) | > 10 | > 10 µM (inactive) | > 10 µM (inactive) | > 10 µM (inactive) | > 10 µM (inactive) | > 10 µM (inactive) | > 10 µM (inactive) | > 10 µM (inactive) | > 10 µM (inactive) | > 10 µM (inactive) | > 10 µM (inactive) | > 10 µM (inactive) | > 10 µM (inactive) | > 10 µM (inactive) |
| COc1nc(N)c(NC2OC(CO)C(O)C2O)c(=O)[nH]1 (configuration not stated) | > 100 µM (inactive) | > 100 µM (inactive) | > 100 µM (inactive) | > 100 | > 100 µM (inactive) | > 100 µM (inactive) | > 100 µM (inactive) | > 100 µM (inactive) | > 100 µM (inactive) | > 100 µM (inactive) | > 100 µM (inactive) | > 100 µM (inactive) | > 100 µM (inactive) and 75.5 µM (inactive) | > 100 µM (inactive) | > 100 µM (inactive) | > 100 µM (inactive) | > 100 µM (inactive) |
| COC(=O)C#Cc1ccc([N+](=O)[O-])cc1 | 1.81 µM (inactive) | 13.1 µM (inactive) | 2.16 µM (inactive) | 0.502 | 0.659 µM (active) | 1.77 µM (inactive) | 8.32 µM (inactive) | 2.05 µM (inactive) | 1.67 µM (inactive) | 1.59 µM (inactive) | 1.96 µM (inactive) | 1.88 µM (inactive) | 2.27 µM (inactive) | 1.7 µM (inactive) | 2.54 µM (inactive) | 1.9 µM (inactive) | 2.05 µM (inactive) |
| Cc1c(C)c2c(c(N)c1C#N)C(=O)N(N)C2=O | > 100 µM (inactive) | > 100 µM (inactive) | > 100 µM (inactive) | > 100 | 61.7 µM (inactive) | > 100 µM (inactive) | > 100 µM (inactive) | > 100 µM (inactive) | > 100 µM (inactive) | > 100 µM (inactive) | > 100 µM (inactive) | > 100 µM (inactive) | > 100 µM (inactive) | > 100 µM (inactive) | > 100 µM (inactive) | > 100 µM (inactive) | > 100 µM (inactive) |
| CC(C)c1c(O[Si](C(C)C)(C(C)C)C(C)C)cc2c(c1O)CC[C@H]1C(C)(C)CCC[C@]21C | > 100 µM (inactive) | > 100 µM (inactive) | > 100 µM (inactive) | > 100 | 43.9 µM (inactive) | 24.6 µM (inactive) | > 100 µM (inactive) | > 100 µM (inactive) | > 100 µM (inactive) | > 100 µM (inactive) | > 100 µM (inactive) | > 100 µM (inactive) | > 100 µM (inactive) | > 100 µM (inactive) | > 100 µM (inactive) | > 100 µM (inactive) | > 100 µM (inactive) |
| CCOC(=O)C(NC(=O)CC)(Nc1ccc(S(=O)(=O)Nc2ncccn2)cc1)C(F)(F)F (configuration not stated) | > 100 µM (inactive) | > 100 µM (inactive) | > 100 µM (inactive) | > 100 | > 100 µM (inactive) | > 100 µM (inactive) | > 100 µM (inactive) | > 100 µM (inactive) | > 100 µM (inactive) | > 100 µM (inactive) | > 100 µM (inactive) | > 100 µM (inactive) | > 100 µM (inactive) | > 100 µM (inactive) | > 100 µM (inactive) | > 100 µM (inactive) | > 100 µM (inactive) |
